According to US20230134859A1, “METHOD FOR SCREENING FOR, METHOD FOR PRODUCING, AND METHOD FOR DESIGNING DRUG ACTIVE INGREDIENTS” (SKY PHARMA CO., LTD., priority 2020, published 2023):

Tests used:
Format in all cases: in vivo
pancreatic β cells = test: Test Example 9: pancreatic β cells and insulin in transgenic zebrafish embryos; conditions: vs control; for production amount of insulin by β cells (immunostaining with anti-insulin antibody, average fluorescence intensity): 100 nM or 5 nM, 20 h after injection, n=10; for production amount of insulin by β cells (in situ hybridization, ins probe): 100 nM, 14 h after injection, n=100
Procedure: Transgenic zebrafish expressing pancreatic β-cell GFP
Transgenic zebrafish embryos expressing pancreatic β-cell GFP at 10 hours after fertilization were held with the dorsal side of the head up on a coffin, and a glass capillary was inserted from the dorsal side into a gap just below the midline neural tube at about 2 times the distance between the rostral end and the ear vesicles to the caudal side (pancreatic primordium). A nitrogen gas pressure (15 picosiemens) was applied for 15 to 45 milliseconds, and the test compound was injected. The concentration of the test compound was 100 nM/E3, and 0.025% (final concentration) phenol red was mixed as a tracer of the infusion solution. The injection was performed in pulses with a foot pedal and continued until phenol red was distributed in an elliptical shape with a major axis of 200 μm from the insertion point.
The test compound (100 nM) was injected on a coffin in transgenic zebrafish embryos expressing pancreatic β-cell GFP at 10 hours after fertilization. After injection, embryos were cultured in E3 at 28.5° C. for 14 hours. After chorions were removed with tweezers, the embryos were fixed with 4% paraformaldehyde/PBS at room temperature for 1 hour, and in situ hybridization was performed overnight at 65° C. in the presence of a DIG probe of insulin (ins) according to a conventional method. After washing, β cells were stained by an alkali phosphatase color reaction using an anti-DIG antibody. After staining, the embryos were washed with PBS, embedded in 75% glycerin/PBS and localized, and then microscopically photographed with incident light. The number of test individuals was unified with n=100 for each test compound (FIG. 23).
Transgenic zebrafish embryos expressing pancreatic β-cell GFP at 10 hours after fertilization were injected with the test compound (100 nM or 5 nM) on the coffin. After injection, embryos were cultured in E3 at 28.5° C. for 20 hours in the presence of 0.2 mM phenylthiourea (PTU). After chorions were removed with tweezers, the embryos were fixed with 4% paraformaldehyde/PBS at normal temperature for 1 hour, immunohistochemically reacted with an anti-insulin antibody according to a conventional method, and then reacted with an Alexa fluor 488 anti-mouse IgG secondary antibody. The reacted embryos were washed with PBS, embedded in 75% glycerin/PBS and localized, and then microscopically photographed with 488 nm excitation light (FIG. 24). The number of tested individuals was unified with n=10 for each compound. The insulin amount was quantified by measuring the average fluorescence intensity in a circle with a radius of 100 μm centered on the fluorescence point (FIG. 25).

Purkinje cells = test: Test Example 6: increase in Purkinje cells of adult mouse after injection into E11.5 fetal ventricle; conditions: test compounds = Compounds 1 to 7; 100 μM injected into E11.5 fetal ventricle, counted in adult mice; vs control; N=10
Procedure: A solution prepared by dissolving 100 μM of the test compound in physiological saline was injected into E11.5 mouse fetal ventricle. Brains of adult mouse individuals were fixed, and slice sections of cerebellar Purkinje cell layers were immunostained with an anti-d-Calbindin antibody, which is a marker of cell bodies and neurites of Purkinje cells. After staining, the number of Purkinje cells was counted, and the average value thereof was calculated.
As a control experiment (control), a similar experiment was performed using physiological saline containing no test compound.
The number of samples is 10 for each of Compounds 1 to 7 and control (N=10).

[1] = system: sox1α, sox2, sox3, and her6; test: Test Example 1: quantitative PCR of neural stem cell markers in brains of treated zebrafish; conditions: brain of treated zebrafish individuals; ΔΔCt; vs control
Procedure: Moreover, the brains of the treated zebrafish individuals were dissected and washed with sterile distilled water, and then crushed by pipetting or 1 ml syringe suction discharge with 18 G to 24 G needles in 500 μl of Sepasol-RNA I Super G (Nacalai Tesque). A deproteinization operation was conducted once by equivalent phenol/chloroform treatment and once by chloroform treatment, and the supernatant was subjected to RNA purification using an RNA purification column (RNeasy Plus Mini Kit, Qiagen). The elute was reverse-transcribed using a mixed primer of random hexamer and oligo-dT (ReverTra Ace qPCR Kit, TOYOBO) at 37° C. for 15 minutes and 98° C. for 5 minutes, and quantitative PCR of expression levels of sox1α, sox2, sox3, and her6, which are markers of neural stem cells, was performed. Quantitative PCR was performed with SYBER Green Realtime PCR Master Mix (TOYOBO). For the PCR reaction, ABI PRISM 7700 or LightCycler from Roche Diagnostics K.K. was used. Quantification was performed in 3 wells per identical sample (n=3). The obtained data was comparatively quantified by a ΔΔCt method using a normalizer (β-actin, GAPDH, 18S, or the like). In order to confirm that the quantitative reaction was reliable, it was confirmed that the amplification product was in a band by agarose electrophoresis.

cardiomyocytes = test: Test Example 8: enhancement of myocardium in zebrafish embryo (nkx2.5 in situ hybridization, blood cells pumped per heartbeat); conditions: test compounds = Compounds 1 to 7; 100 μM injected at heart primordium 10 h after fertilization; vs control; n=80
Procedure: Zebrafish embryos at 10 hours after fertilization were held with the dorsal side of the head up on a coffin (plastic plate with V-shaped grooves for holding), and a glass capillary was inserted into a midline between head and ear vesicles (heart primordium). Nitrogen gas pressure (15 picosiemens) was applied for 15 to 45 milliseconds and injected into the gap just below the neural tube. The test compound concentration was 100 μM/E3, and 0.025% (final concentration) phenol red was mixed as a tracer of the injection solution. The injection was performed in pulses with a foot pedal and continued until phenol red was distributed in an elliptical shape with a major axis of 200 μm from the insertion point. After injection, embryos were cultured at 28.5° C. for 14 hours in E3. After chorions were removed with tweezers, the embryos were fixed with 4% paraformaldehyde/PBS at normal temperature for 1 hour, and in situ hybridization was performed overnight at 65° C. in the presence of a DIG probe of nk×2.5 as a cardiac muscle marker according to a conventional method. After washing, cardiomyocytes were stained by an alkali phosphatase color reaction using an anti-DIG antibody. The stained embryos were washed with PBS, embedded in 75% glycerin/PBS and localized, and then microscopically photographed with incident light. The number of tested individuals was unified with n=80 for each compound.
In addition, the zebrafish embryos injected with the test compound by the above-described method were cultured at 28.5° C. until 48 hours after fertilization, embedded in 3% methyl cellulose/E3, and a moving image was photographed. The number of blood cells pumped in one heartbeat in time-lapse was counted n=15 and compared to Ringer injected individuals.

[2] = system: mesencephalic neural stem cells; test: Test Example 7: increase in neural stem cells of adult zebrafish by intracerebroventricular administration; conditions: test compounds = Compounds 1 to 7; 100 μM into ventricle of one-month-old fish, 1 week; E3 Ringer or lipofection; vs control
Procedure: Reporter gene transgenic line of zebrafish specifically expressing green fluorescent protein in mesencephalic neural stem cells
A solution (0.1% DMSO) in which the test compound (100 μM) was dissolved in E3 Ringer (zebrafish physiological saline) was prepared. Mesencephalic neural stem cells were microscopically injected into the ventricles of one-month-old adult fish individuals labeled with green fluorescent protein, and cultured at 28.5° C. for 1 week.
As a control experiment (control), only E3 Ringer (0.1% DMSO plus 0.025% phenol red) was administered into the ventricle in the same volume. […]
Specifically, the solid cultured for 7 days after injection was held in a 3% methylcellulose/E3 Ringer/0.02% tricaine solution on a slide glass, and then GFP was emitted with 488 nm excitation light and imaged by a CCD camera. In addition, the average fluorescence brightness of the green fluorescent protein in a rectangle with a width of 100 μm and a height of 50 μm with the rostral end up around the fluorescence expression part was measured with a brightness analysis software. […]
In order to inhibit synthesis of melanin pigment that interferes with observation with a fluorescence microscope, 0.2 mM phenylthiourea (PTU) had been added to the culture solution.

SMILES | production amount of insulin by β cells (immunostaining with anti-insulin antibody, average fluorescence intensity) (pancreatic β cells) | production amount of insulin by β cells (in situ hybridization, ins probe) (pancreatic β cells) | number of Purkinje cells in the cerebellar Purkinje cell layers (Purkinje cells) | expression levels of sox1α, sox2, sox3, and her6 (quantitative PCR) [1] | amount of cardiomyocytes (in situ hybridization, nkx2.5) (cardiomyocytes) | fluorescence indicating the presence of mesencephalic neural stem cells in the brain of adult zebrafish [2]
COc1cc(N2CCC(N(C)C)CC2)ccc1Nc1ncc(Cl)c(Nc2ccccc2P(C)(C)=O)n1 [Compound 6, 5-Chloro-2-N-{4-[4-(dimethylamino)piperidin-1-yl]-2-methoxyphenyl}-4-N-[2-(dimethylphosphoryl)phenyl]pyrimidine-2,4-diamine] | significantly increased as compared with the control individual | significantly increased as compared with the control individual |  |  |  | 
Cc1cccc(-c2n[nH]cc2-c2ccnc3ccccc23)n1 [Compound 2, 4-[3-(6-Methylpyridin-2-yl)-1H-pyrazol-4-yl]quinoline] | significantly increased as compared with the control individual | significantly increased as compared with the control individual | significantly higher than that of the control | significant increase in expression levels | increase in the amount of cardiomyocytes was observed | 
O=C(O)CCC(=O)Nc1ccc(Br)cn1 [Compound 5, 4-[(5-Bromopyridin-2-yl)amino]-4-oxobutyric acid] |  | significantly increased as compared with the control individual | significantly higher than that of the control |  | increase in the amount of cardiomyocytes was observed | strongly detected as compared with the control
